# Laboratory results as given in ChEMBL document CHEMBL2406977, “The discovery of PLK4 inhibitors: (E)-3-((1H-Indazol-6-yl)methylene)indolin-2-ones as novel antiproliferative agents” (J Med Chem, 2013).
# How the values were obtained:
# Aurora kinase B = Aurora kinase B (Homo sapiens, UniProt Q96GD4); assay: Inhibition of aurora B (unknown origin) by FRET-based homogeneous assay
# Aurora kinase A = target: T1, Aurora kinase A (Homo sapiens, UniProt O14965); assay: Inhibition of aurora A (unknown origin) by FRET-based homogeneous assay
# T1 sequence (O14965 whole entry): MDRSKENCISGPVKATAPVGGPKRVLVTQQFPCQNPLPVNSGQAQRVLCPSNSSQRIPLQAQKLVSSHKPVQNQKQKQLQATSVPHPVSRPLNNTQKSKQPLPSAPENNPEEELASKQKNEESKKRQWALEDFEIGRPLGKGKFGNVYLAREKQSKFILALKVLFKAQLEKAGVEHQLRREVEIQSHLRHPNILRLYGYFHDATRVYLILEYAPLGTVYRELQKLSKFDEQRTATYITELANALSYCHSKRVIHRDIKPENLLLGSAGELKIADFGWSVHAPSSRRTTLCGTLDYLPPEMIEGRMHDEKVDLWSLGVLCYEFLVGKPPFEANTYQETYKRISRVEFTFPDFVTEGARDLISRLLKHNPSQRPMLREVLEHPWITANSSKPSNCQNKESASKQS
# [1] = Permeability of the compound at pH 7.4 by PAMPA; format: ADME; conditions: read-out: permeability
# Cytochrome P450 2C19 = Cytochrome P450 2C19 (Homo sapiens, UniProt P33261); assay: Inhibition of CYP2C19 (unknown origin) using MFC as substrate after 30 mins by fluorescence assay; format: ADME
# Cytochrome P450 1A2 = target: T2, Cytochrome P450 1A2 (Homo sapiens, UniProt P05177); assay: Inhibition of CYP1A2 (unknown origin) using CEC as substrate after 15 mins by fluorescence assay; format: ADME
# T2 sequence (P05177 whole entry): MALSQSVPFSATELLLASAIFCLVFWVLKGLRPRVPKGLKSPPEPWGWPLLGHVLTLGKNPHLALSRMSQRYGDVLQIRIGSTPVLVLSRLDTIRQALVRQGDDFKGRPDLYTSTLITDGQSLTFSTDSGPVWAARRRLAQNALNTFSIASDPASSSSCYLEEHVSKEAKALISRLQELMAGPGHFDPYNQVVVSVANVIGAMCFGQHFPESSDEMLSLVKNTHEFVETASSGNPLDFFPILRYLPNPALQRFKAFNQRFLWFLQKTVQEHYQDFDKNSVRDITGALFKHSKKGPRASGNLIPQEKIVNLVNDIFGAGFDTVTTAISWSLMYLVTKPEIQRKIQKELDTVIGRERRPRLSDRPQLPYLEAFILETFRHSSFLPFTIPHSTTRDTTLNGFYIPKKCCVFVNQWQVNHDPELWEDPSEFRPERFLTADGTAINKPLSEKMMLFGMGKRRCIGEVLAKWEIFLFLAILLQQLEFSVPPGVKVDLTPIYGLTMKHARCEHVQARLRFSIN
# HCC1954 = assay: Antiproliferative activity against human HCC1954 cells assessed as growth inhibition after 5 days by SRB assay; format: functional; conditions: HCC1954, 120 h
# SK-BR-3 = assay: Antiproliferative activity against human SKBR3 cells assessed as growth inhibition after 5 days by SRB assay; format: functional; conditions: SK-BR-3, 120 h
# MDA-MB-468 = assay: Antiproliferative activity against human MDA-MB-468 cells assessed as growth inhibition after 5 days by SRB assay; format: functional; conditions: MDA-MB-468, 120 h
# [2] = target: Serine/threonine-protein kinase PLK2 (Homo sapiens, UniProt Q9NYY3); assay: Inhibition of PLK2 (unknown origin) by FRET-based homogeneous assay
# Serine/threonine-protein kinase PLK2, sequence (Q9NYY3 whole entry): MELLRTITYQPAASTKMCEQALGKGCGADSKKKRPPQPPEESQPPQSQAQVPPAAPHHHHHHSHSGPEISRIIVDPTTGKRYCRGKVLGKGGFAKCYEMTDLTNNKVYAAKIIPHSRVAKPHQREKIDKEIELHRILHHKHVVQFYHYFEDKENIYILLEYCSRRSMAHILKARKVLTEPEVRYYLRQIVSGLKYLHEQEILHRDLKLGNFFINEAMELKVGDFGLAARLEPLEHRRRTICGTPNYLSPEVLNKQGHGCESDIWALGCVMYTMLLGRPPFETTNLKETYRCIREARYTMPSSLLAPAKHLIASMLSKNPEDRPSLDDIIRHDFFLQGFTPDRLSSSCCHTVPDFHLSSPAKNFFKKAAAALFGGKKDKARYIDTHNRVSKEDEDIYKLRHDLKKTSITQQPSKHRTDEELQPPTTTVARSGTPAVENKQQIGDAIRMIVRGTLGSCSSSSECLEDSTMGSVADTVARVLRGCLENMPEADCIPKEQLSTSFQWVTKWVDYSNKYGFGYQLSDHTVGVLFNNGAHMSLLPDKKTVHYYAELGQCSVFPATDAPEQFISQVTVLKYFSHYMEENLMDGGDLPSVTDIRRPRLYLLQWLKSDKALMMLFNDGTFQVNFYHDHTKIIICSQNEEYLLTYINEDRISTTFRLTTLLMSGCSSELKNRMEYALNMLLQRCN
# Aurora kinase B, sequence (Q96GD4 whole entry): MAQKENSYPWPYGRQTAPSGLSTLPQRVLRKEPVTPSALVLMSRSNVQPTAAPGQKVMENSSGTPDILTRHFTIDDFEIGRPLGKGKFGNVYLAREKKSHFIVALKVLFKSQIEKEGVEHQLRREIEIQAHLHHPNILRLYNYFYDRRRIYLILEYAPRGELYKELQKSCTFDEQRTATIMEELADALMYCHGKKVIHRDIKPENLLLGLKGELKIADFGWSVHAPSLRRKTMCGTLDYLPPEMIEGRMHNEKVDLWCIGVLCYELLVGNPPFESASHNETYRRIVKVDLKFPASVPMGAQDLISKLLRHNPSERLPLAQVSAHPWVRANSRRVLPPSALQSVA
# Cytochrome P450 2C19, sequence (P33261 whole entry): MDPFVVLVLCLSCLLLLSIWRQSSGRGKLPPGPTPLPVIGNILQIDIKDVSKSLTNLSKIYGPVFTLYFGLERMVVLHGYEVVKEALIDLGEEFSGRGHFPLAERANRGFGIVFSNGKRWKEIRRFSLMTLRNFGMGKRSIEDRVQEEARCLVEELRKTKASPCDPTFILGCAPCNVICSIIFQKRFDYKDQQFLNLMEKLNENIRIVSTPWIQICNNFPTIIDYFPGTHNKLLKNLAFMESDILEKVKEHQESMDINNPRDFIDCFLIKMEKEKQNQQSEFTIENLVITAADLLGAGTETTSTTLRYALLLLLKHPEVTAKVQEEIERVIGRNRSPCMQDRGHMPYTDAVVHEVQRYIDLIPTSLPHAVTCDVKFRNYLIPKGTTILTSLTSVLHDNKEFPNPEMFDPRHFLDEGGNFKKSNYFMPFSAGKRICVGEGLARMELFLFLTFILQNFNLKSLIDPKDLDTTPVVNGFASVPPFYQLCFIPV
smiles,measurement,setting,value
COc1ccc2c(c1)/C(=C\c1ccc3c(/C=C/c4ccc(N5CCN(C)CC5)nc4)n[nH]c3c1)C(=O)N2,IC50,Aurora kinase B,210 nM
same,IC50,Aurora kinase A,370 nM
same,Papp,[1],164 ×10⁻⁶ cm/s
same,IC50,Cytochrome P450 2C19,1600 nM
same,IC50,Cytochrome P450 1A2,> 10000 nM
same,GI50,HCC1954,2300 nM
same,GI50,SK-BR-3,2300 nM
same,GI50,MDA-MB-468,< 10 nM
same,IC50,[2],> 10000 nM
